Assays:
[1] = Stability test of crystal form I (influencing factors); format: physicochemical
Protocol: Test substances: the crystal form I was prepared by example 2 of the present invention.
Method: the appropriate amount of crystal form I samples were taken and placed openly at 60° C. and RH 92.5% under light; and the samples were collected on day 5, day 10, and day 30 to investigate changes in the trait, content, and moisture of the samples.

[2] = Solubility in test solutions at different pHs and water; format: physicochemical; conditions: 37° C.
Protocol: Test substances: the compound of formula (I) was prepared by example 1 of the present invention, the crystal form I was prepared by example 2 of the present invention, the crystal form II was prepared by example 16 of the present invention, the crystal form III was prepared by example 20 of the present invention, the crystal form IV was prepared by example 24 of the present invention, the crystal form V was prepared by example 25 of the present invention, the crystal form VI was prepared by example 27 of the present invention, and the crystal form VII was prepared by example 31 of the present invention.
Preparation of Buffered Salt Solutions at Different pHs:
hydrochloric acid solution at pH 1.0:9 ml of hydrochloric acid was pipetted, and water was added for dilution to 1000 ml; the mixture was mixed homogeneously to obtain a hydrochloric acid solution at pH 1.03. Phosphate buffered solution at pH 4.5:1.56 g of sodium dihydrogen phosphate dihydrate was weighed, and 200 ml of water was added to obtain a phosphate buffered solution at pH 4.50. Phosphate buffered solution at pH 6.8:1.56 g of sodium dihydrogen phosphate dihydrate was weighed, and 200 ml of water was added; and the mixture was adjusted to pH 6.80 with 1 mol/L sodium hydroxide solution.
preparation of buffered solutions at different pHs (samples for determining solubility):
50 mg of each test substance was weighed, and 5 ml of the hydrochloric acid solution (pH 1.0) was added; and the mixture was mixed homogeneously with shaking. About 2.5 mg of each test substance was weighed, and 5 ml of the phosphate buffered solution (pH 4.5), 5 ml of the phosphate buffered solution (pH 6.8), and 5 ml of ultrapure water were added, respectively; the mixture was mixed homogeneously with shaking, and then placed in a 37° C. water bath shaker for shaking; the samples were collected at 24 hours and subjected to centrifugation; and the supernatant was taken and directly injected (if the solubility was high, the supernatant was diluted with a 0.1 mol/L hydrochloric acid solution to an appropriate multiple and then injected).
The solubility of the samples was quantitatively calculated according to the single-point external standard method.

[3] = Placed openly at 60° C. for 5 days
[4] = Placed openly at 60° C. for 10 days
[5] = Placed openly at 60° C. for 30 days
[6] = Placed openly at RH 92.5% for 5 days
[7] = Placed openly at RH 92.5% for 10 days
[8] = Placed openly at RH 92.5% for 30 days
[9] = Placed openly under light for 5 days
[10] = Placed openly under light for 10 days
[11] = placed openly under light for 30 days

With `CCc1cc2c(N3CCC(C)(OC)CC3)c(C#N)c(=O)[nH]c2cn1` [Crystal form I, 6-ethyl-4-(4-methoxy-4-methylpiperidin-1-yl)-2-oxo-1,2-dihydro-1,7-diazanaphthal ene-3-carbonitrile] the Content ([1]; 0 day) was 99.7%, the Moisture ([1]; 0 day) was 0.08% and the Trait ([1]; 0 day) was “Yellow powder”. The Content [1, 3] was 99.8%, the Moisture [1, 3] was 0.06% and the Trait [1, 3] was “Yellow powder”. The Content [1, 4] was 99.8%, the Moisture [1, 4] was 0.10% and the Trait [1, 4] was “Yellow powder”. The Content [1, 5] was 100.1%, the Moisture [1, 5] was 0.12% and the Trait [1, 5] was “Yellow powder”. For the same compound, the Content [1, 6] was 99.7%, the Moisture [1, 6] was 0.04% and the Trait [1, 6] was “Yellow powder”. The Content [1, 7] was 100.3%, the Moisture [1, 7] was 0.09% and the Trait [1, 7] was “Yellow powder”. For the same compound, the Content [1, 8] was 100.5%, the Moisture [1, 8] was 0.09% and the Trait [1, 8] was “Yellow powder”. For the same compound, the Content [1, 9] was 99.7%, the Moisture [1, 9] was 0.06% and the Trait [1, 9] was “Yellow powder”. The Content [1, 10] was 99.3%, the Moisture [1, 10] was 0.13% and the Trait [1, 10] was “Yellow powder”. For the same compound, the Content [1, 11] was 100.0%, the Moisture [1, 11] was 0.09% and the Trait [1, 11] was “Yellow powder”. The 24-hour solubility ([2]; Water) was 110 µg/mL, the 24-hour solubility ([2]; pH 1.0 hydrochloric acid solution) was 8600 µg/mL and the 24-hour solubility ([2]; pH 4.5 phosphate buffered solution) was 130 µg/mL. The 24-hour solubility ([2]; pH 6.8 phosphate buffered solution) was 110 µg/mL.

— patent US12234233B2, “Crystal form of phosphodiesterase inhibitor, preparation method therefor and use thereof” (TRANSTHERA SCIENCES (NANJING), INC., priority 2019, dated 2025)
